This experiment has as its system aromatic aminoacid-decarboxylase. The experiment in a line: Blockade of aromatic aminoacid-decarboxylase activity. Format: biochemical. The text has this: This blockade of the aromatic aminoacid-decarboxylase is irreversible and thus is of special interest since it is maintained as long as the enzyme molecules are in the effective range of the benzophenanthridine alkaloids. Sanguinarine and chelerythrine, representative of the benzophenanthridine alkaloids, have an aromatic structure which is similar to that of the aromatic amino acids. The enzyme “aromatic aminoacid-decarboxylase” confuses the ultimate structure of the benzophenanthridine alkaloid with the ring structure of the aromatic amino acid and fits it rather than the amino acids at its active center.

Data on one molecule can be found in US20030190344A1, “Animal feed or feed additive as performance enhancer or appetite enhancer for live stock” (priority 2000, published 2003).

The structures appear in SMILES notation.

With `COc1ccc2c(c[n+](C)c3c4cc5c(cc4ccc23)OCO5)c1OC` [chelerythrine], the “block the activity of the aromatic aminoacid-decarboxylase” value turned out to be 92% and the “reversibility of blockade of the aromatic aminoacid-decarboxylase” value is “irreversible”.
